Reference: US9604987B2, “Synthesis of autophagy inducing compound and the uses thereof” (Hong Kong Baptist University, priority 2012, dated 2017)
Like-named read-outs stand apart in the source and are kept apart here.

Columns and labels:
[1] = tested on: rat primary cortical neurons; assay: LC3 immunoblot in primary cultured rat cortical neurons; type: cell-based; conditions: different concentrations, 24 hours
Description: To further confirm the pro-autophagic effect of CB6 and CB8 on primary neurons, rat primary cortical neurons isolated from E17 rats are used in the study. The primary neurons are treated with different concentrations of CB6 and CB8 respectively for 24 hours, and autophagic markers LC3 is detected by immunoblot analysis.
The E16 pregnant rat was anesthetized by intraperitoneal injection with 3% chloral hydrate in normal saline (1 ml/100 g bdw). The uterus containing embryos were dissected and transferred to a Petri dish, and then the embryos were collected on a new petri dish containing ice cold PBS. The brains of the embryos were then dissected under stereoscope and the cortices of the brains were placed in a Petri dish containing ice cold 10% FBS DMEM. The meninges of the cortices were removed carefully and then transferred to a 15 ml tube. Total 5 ml of digestion solution (1.25% Trypsin diluted with DMEM/F12 medium) were added into the tube containing meninges-free cortices and then incubated at 37° C. for 15 min. The digestion was stopped by adding 10% FBS DMEM/F12 supplemented with 10 μg/ml DNase (Sigma, DN25). […] The viable cells without staining with typan blue were then counted under microscope. […]

[2] = Pharmacokinetic study of Cory B, CB6 and CB8 in rats (plasma, LC/MS/MS, NCA); design: species or system Male Sprague-Dawley (SD) rats; conditions: rat, in vivo, 1 mg/kg; for AUC / Cmax / MRT / half-life: male, Sprague-Dawley
Description: Male Sprague-Dawley (SD) rats (weighting ˜200 g) used in the experiment are provided by Laboratory Animal Services Center of The Chinese University of Hong Kong (Hong Kong SAR, People's Republic of China). Cory B (n=3), CB6 (n=6) and CB8 (n=6). For the jugular vein cannulation surgery, the rats are anesthetized (intramuscular injection of a mixture of 80 mg/kg ketamine and 8 mg/kg xylazine) followed by inserting a polyethylene tube (0.5 mm ID, 1 mm OD, Portex Ltd., England) into the right jugular vein. The cannulated rats are allowed to recover overnight while fasting with free access to water. For intravenous (IV) administrations, Cory B, CB6 or CB8 (200 μg/mL, dissolved in saline containing 9.2% PEG400+0.5% DMSO, w/w) is given through the jugular vein catheter at 1 mg/kg. For intranasal (IN) administration, 10 μL of Cory B, CB6 or CB8 (10 mg/mL, dissolved with 40% PEG400, 10% DMSO in H2O, w/w) is given to each nostril of rats. At pre-determined time points post-dosing (5, 10, 20, 30, 60, 120, 240 and 360 min for IV and IN administration groups), approximately 200 μL blood is collected into a heparinized centrifuge tube containing 5 μM EDTA followed by centrifugation at 3000 rpm for 5 min to obtain the plasma. To 100 μL rat plasma sample, an aliquot of 100 μL internal standard (IS) and 100 μL of acetonitrile are added. The mixture is mixed for 1 min by vortex and then centrifuged for 10 min at 13,200 rpm. 200 μL of supernatant is transferred into centrifuge tubes and mixed with 200 μL of H2O containing 4% formic acid (FA). After another round of vortex and centrifugation, 10 μL of the supernatant is subjected to LC/MS/MS for quantification of Cory B, CB6 or CB8 with an established LC/MS/MS method. Pharmacokinetic parameters from non-compartmental analysis (NCA) are calculated using WinNonLin. The pharmacokinetic parameters and profiles of each analytes are shown as below.

Drosophila fat body = assay: Atg8a-EGFP puncta in Drosophila fat body (confocal); type: in vivo; conditions: L3 larvae, 100 μM, 6 hours
Description: To further test whether CB6 and CB8 could induce autophagy in vivo, Drosolphila expressing Atg8a-GFP (Atg8a, Drosophila homologue of LC3) are obtained by crossing Cg-GAL4, a GAL4 line drives transgene expression in fat body, with UAS-Atg8a-EGFP. Crossed flies are allowed to lay eggs for 1 hour, 90 hours later, the L3 larvae are collected and treated with 100 μM of Cory B, CB6 and CB8 for 6 hours respectively. After treatment, the fat body lobes of the larvae are harvested with fine forceps and fixed with 4% PFA in PBS at room temperature for 15 minutes. Fat body lobes are then washed with PBS three times and subsequently mounted with VECTASHIELD hardset anti-fade mounting medium. The slides are then subjected to confocal microscopy analysis.
Crossed flies were allowed to lay eggs for 1 hr, 90 hrs later, the L3 larvae were collected for further treatment. The compounds were firstly dissolved in DMSO and then diluted to the desired concentration with ddH2O and then mixed thoroughly with instant fly food. The L3 larvae were placed in the prepared food and received treatment for 6 hrs. After treatment, the fat body lobes of the larvae were harvested with fine forceps and fixed with 4% PFA in PBS at room temperature for 15 min. Fat body lobes were then washed with PBS three times and subsequently mounted with VECTASHIELD hardset antifade mounting medium. […]

JNPL P301 Tau mice = JNPL P301 Tau mice treated intraperitoneally; type: in vivo; conditions: 20 mg/kg/d intraperitoneally, three months
Description: N2a Swedish APP cells are incubated with different concentration of Cory and Cory B in the presence or absence of CQ and 3MA. […] Tg2567 APP mice, 3 months old JNPL P301 Tau mice and WT mice intraperitoneally are administrated with 20 mg/kg/d CoryB.

SMILES: CCCN1C(=O)[C@]2(CCN3C[C@@H](CC)[C@@H](/C(=C\OC)C(=O)OC)C[C@H]32)c2ccccc21 [CB6]
- autophagy (LC3 immunoblot) [1]: induced autophagy
- AUC ([2]; inhaled or intranasal): 200 ng·h/mL
- Cmax ([2]; inhaled or intranasal): 244 ± 33 ng/mL
- MRT ([2]; inhaled or intranasal): 1.83 h
- half-life ([2]; inhaled or intranasal): 1.93 ± 0.133 h
- AUC ([2]; iv): 248 ng·h/mL
- Cmax ([2]; iv): 520 ± 177 ng/mL
- MRT ([2]; iv): 1.58 h
- half-life ([2]; iv): 2 ± 0.25 h
- Tmax (time to reach Cmax) ([2]; inhaled or intranasal): 5 ± 0 min
- Cmax and Area Under Curve (AUC) in comparison Cory B ([2]; iv): greater
- autophagy in vivo (Atg8a-EGFP puncta) (Drosophila fat body): able to induce autophagy

SMILES: C=CCN1C(=O)[C@]2(CCN3C[C@@H](CC)[C@@H](/C(=C\OC)C(=O)OC)C[C@H]32)c2ccccc21 [CB8]
- autophagy (LC3 immunoblot) [1]: induced autophagy
- AUC ([2]; inhaled or intranasal): 124 ng·h/mL
- Cmax ([2]; inhaled or intranasal): 129 ± 61 ng/mL
- MRT ([2]; inhaled or intranasal): 1.95 h
- half-life ([2]; inhaled or intranasal): 1.65 ± 0.217 h
- AUC ([2]; iv): 102 ng·h/mL
- Cmax ([2]; iv): 143 ± 42 ng/mL
- MRT ([2]; iv): 1.65 h
- half-life ([2]; iv): 1.87 ± 0.433 h
- Tmax (time to reach Cmax) ([2]; inhaled or intranasal): 5 ± 0 min
- Cmax and Area Under Curve (AUC) in comparison Cory B ([2]; iv): greater
- autophagy in vivo (Atg8a-EGFP puncta) (Drosophila fat body): able to induce autophagy

SMILES: CC[C@@H]1CN2CC[C@]3(C(=O)Nc4ccccc43)C2C[C@@H]1C(=COC)C(=O)OC (stereo partly drawn) [Cory B, Corynoxine B]
- total tau (JNPL P301 Tau mice): significantly decrease
- AUC ([2]; inhaled or intranasal, rats, intranasal, read-out: AUC (area under the curve) (converted)): 92.6 ng·h/mL
- Cmax ([2]; inhaled or intranasal, rats, intranasal, read-out: Cmax (maximum plasma concentration)): 145 ± 62 ng/mL
- MRT ([2]; inhaled or intranasal, rats, intranasal, read-out: MRT (mean residence time) (converted)): 2.22 h
- half-life ([2]; inhaled or intranasal, rats, intranasal, read-out: t1/2 (plasma half-life)): 1.93 ± 0.233 h
- AUC ([2]; rats, intravenous, read-out: AUC (area under the curve) (converted)): 63.6 ng·h/mL
- Cmax ([2]; rats, intravenous, read-out: Cmax (maximum plasma concentration)): 66 ± 8 ng/mL
- MRT ([2]; rats, intravenous, read-out: MRT (mean residence time) (converted)): 2.3 h
- half-life ([2]; rats, intravenous, read-out: t1/2 (plasma half-life)): 2.13 ± 0.367 h
